The record followed here is patent US10272055B2, “Therapeutic compounds and methods” (Regents of the University of Minnesota, priority 2014, dated 2019).

Each structure is given as a SMILES string.

Data set [1] in a line: Tolerability in xenograft mice (MTD, weight). Conditions: mouse, in vivo. The source says:
[…]. (* indicates P<0.05). Error bars are SEM. […] The dose limiting toxicity was weight loss. At the MTD there was a well-tolerated 4% reduction of weight at 42 days (P<0.0001; data not shown). […].

Another data set has as its target CYP3A4D3-24 (Homo sapiens, UniProt P08684). The data set is described as follows: Spectral binding (spin shift) to CYP3A4D3-24. As to conditions: vs metformin.

Sequence of CYP3A4D3-24 (P08684 with tags, fused parts or gaps): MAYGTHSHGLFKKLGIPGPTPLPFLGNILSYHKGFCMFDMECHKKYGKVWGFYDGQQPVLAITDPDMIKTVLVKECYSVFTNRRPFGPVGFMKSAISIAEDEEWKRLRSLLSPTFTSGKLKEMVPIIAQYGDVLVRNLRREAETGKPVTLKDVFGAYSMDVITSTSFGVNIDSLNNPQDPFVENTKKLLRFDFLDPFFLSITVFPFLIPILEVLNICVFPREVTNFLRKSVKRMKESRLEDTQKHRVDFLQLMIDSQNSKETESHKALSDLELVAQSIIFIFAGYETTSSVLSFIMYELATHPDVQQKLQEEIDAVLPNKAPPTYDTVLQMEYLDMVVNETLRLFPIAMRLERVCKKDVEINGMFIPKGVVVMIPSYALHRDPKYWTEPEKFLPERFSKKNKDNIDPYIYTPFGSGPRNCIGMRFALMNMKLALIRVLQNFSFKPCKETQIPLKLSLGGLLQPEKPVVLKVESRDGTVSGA

What is called MTD is the largest dose that counted as tolerated. Take `CCCCCCNC(=N)NC(=N)NCc1ccccc1` [HBB, N1-hexyl-N5-benzyl biguanide]: the dose limiting toxicity result in data set [1] is reported as “weight loss”. For the same compound, in data set [1] (nude, ip daily, read-out: maximum tolerated dose (MTD)), the MTD at 42 days was 4 mg/kg. Also, the “fold more potent than metformin, delta 3-24 CYP3A4 spin shift” value at CYP3A4D3-24 is reported as roughly 12 fold.
